Experimental data from patent US10570149B2, “Tricyclic heterocylic derivatives” (MERCK PATENT GMBH, priority 2016, dated 2020).

Assays:
[1] = tested on: phosphorylation of Chk1 (Ser 345) in HT29 colon adenocarcinoma cells; assay: pCHK1 cellular assay; format: cell-based; conditions: Homo sapiens
Excerpt: Chk1 kinase acts downstream of ATR and has a key role in DNA damage checkpoint control. Activation of Chk1 involves phosphorylation of Ser317 and Ser345 (regarded as the preferential target for phosphorylation/activation by ATR) and occurs in response to blocked DNA replication and certain forms of genotoxic stress. Phosphorylation at Ser 345 serves to localize Chk1 to the nucleus following checkpoint activation.
This assay measures a decrease in phosphorylation of Chk1 (Ser 345) in HT29 colon adenocarcinoma cells following treatment with compound and hydroxyurea (which promotes fork stalling because of dNTP depletion) and using an immunocytochemical procedure and high content imaging.
For the assay HT29 cells are plated in culture medium (DMEM high Glucose (no phenol red), 2 mM Glutamax, 1 mM Pyruvate, 10% FCS into Greiner 384 well plates, black, μclear #781090 (2500 cells/well/30 μl) and incubated for at least 20 hours at 37° C., 10% CO2 and 90% rH. Diluted test compounds (1 nM-30 μM final) and hydroxyurea (3 mM final) are added simultaneously and cells are incubated for 4 h at 37° C. After fixation/prmeabilisation with 100% MeOH (−20° C. cold) and permeabilisation with 0.2% Triton X-100 a complete immunocytochemical procedure is performed using a specific anti-pChk1 antibody (Cell Signaling, #2348BF) and fluorescently labelled secondary antibody (Alexa Fluor® 488 goat anti-rabbit F(ab′)2 fragment, Invitrogen A11070) and parallel nuclear staining for cell counting.
The nuclear localised pChk1 signal is detected on an ImageXpress Ultra confocal high content reader and reported as % positive cells (nuclei).

[2] = molecular target: T1, Kv11.1 (hERG) ion channel (Homo sapiens, UniProt Q12809); assay: Kv11.1 (hERG) ion channel activity, whole cell patch clamp; format: cell-based; conditions: for Ki: Table 3, HEK293 hERG patch clamp
T1 construct: expressed in transfected cells; host or cells: HEK293
T1 sequence (Q12809 whole entry): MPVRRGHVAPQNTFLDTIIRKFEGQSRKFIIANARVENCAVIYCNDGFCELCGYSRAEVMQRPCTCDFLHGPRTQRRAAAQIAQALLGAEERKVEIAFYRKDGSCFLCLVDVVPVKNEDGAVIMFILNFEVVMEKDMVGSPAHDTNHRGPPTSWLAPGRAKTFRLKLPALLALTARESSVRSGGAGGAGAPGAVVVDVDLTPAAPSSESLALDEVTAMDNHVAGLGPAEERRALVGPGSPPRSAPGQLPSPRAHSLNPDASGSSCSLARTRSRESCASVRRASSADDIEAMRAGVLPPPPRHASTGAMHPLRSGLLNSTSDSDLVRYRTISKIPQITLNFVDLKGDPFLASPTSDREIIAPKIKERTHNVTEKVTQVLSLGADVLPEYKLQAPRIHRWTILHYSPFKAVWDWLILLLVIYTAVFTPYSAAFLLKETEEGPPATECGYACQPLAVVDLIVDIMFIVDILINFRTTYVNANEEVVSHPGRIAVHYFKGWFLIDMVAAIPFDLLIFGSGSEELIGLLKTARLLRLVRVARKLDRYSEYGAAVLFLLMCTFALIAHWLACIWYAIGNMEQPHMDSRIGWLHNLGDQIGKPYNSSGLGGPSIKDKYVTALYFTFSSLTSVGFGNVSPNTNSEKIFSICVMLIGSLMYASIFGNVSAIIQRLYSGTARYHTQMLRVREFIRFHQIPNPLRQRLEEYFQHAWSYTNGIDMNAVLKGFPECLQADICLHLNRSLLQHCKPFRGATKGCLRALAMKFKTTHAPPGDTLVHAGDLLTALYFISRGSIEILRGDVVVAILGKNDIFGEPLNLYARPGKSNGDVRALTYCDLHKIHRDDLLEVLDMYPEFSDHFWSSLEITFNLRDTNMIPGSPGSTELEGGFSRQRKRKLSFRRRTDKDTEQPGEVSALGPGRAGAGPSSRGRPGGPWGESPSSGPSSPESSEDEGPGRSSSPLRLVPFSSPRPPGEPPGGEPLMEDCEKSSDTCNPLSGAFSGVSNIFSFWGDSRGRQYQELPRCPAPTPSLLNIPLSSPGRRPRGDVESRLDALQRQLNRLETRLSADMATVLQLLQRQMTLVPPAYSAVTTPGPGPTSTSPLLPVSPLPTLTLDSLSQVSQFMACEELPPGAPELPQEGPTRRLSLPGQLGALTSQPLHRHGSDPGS
Experimental: Kv11.1 (hERG) Ion Channel Activity
In this assay, a potential in vitro effect of test compounds on the Kv11.1 (hERG) ion channel current is investigated which mediates the rapidly activating, delayed rectifier cardiac potassium current (IKr). The assay is performed with a stable Kv11.1 (hERG) transfected human embryonic kidney cell line (HEK293) by whole cell patch clamp technique carried out at room temperature.
The Kv11.1 (hERG) ion channel blocker quinidine is used as reference compound. The effects of the test compounds and quinidine are normalized to the corresponding vehicle control. The whole cell recordings are carried out with an automated patch clamp device Patchliner™, Nanion Technologies, Munich). Hereby the Patch Clamp measurements run on silicate-coated chips with a hole of a defined diameter. Solutions, cell suspension and compounds are applied by a Teflon-laminated pipette needle through microfluidic silicate-laminated channels. Commercial patch clamp amplifiers (EPC10, HEKA Elektronik Dr. Schulze GmbH, Germany) are used for the patch clamp recordings. HEK293 cells stably expressing the hERG gene are held at −80 mV. Steady-state inhibition of Kv11.1 (hERG) potassium current due to test/reference compound application is measured using a pulse pattern with fixed amplitudes: 51 ms/−80 mV, 500 ms/+40 mV, 500 ms/−40 mV, 200 ms/−80 mV. The hERG-specific voltage protocol is repeated at 10 s intervals. The leak current is subtracted by a P4 leak subtraction. Cells are resuspended in extracellular patch clamp solution (EC) and applied into the chip. After trapping the cell, the EC is exchanged by seal enhancer solution (SE) to improve the sealing procedure. When the whole cell configuration is attained, seal enhancer is washed out by the application of EC. The recording is started in EC for 1.5 min. Afterwards DMSO (vehicle control, 0.1% DMSO) is applied and the control current is measured for 3 min. Following control steady-state current, test compound is applied twice at the same concentration and the tail current is measured for 3.5 min each. For the determination of a concentration-relationship, the test compound is applied as a cumulative concentration-response curve and each concentration is measured for 5 min. The reference compound quinidine is treated in the same way. The effect on Kv11.1 (hERG) ion channel activity is judged from the tail current amplitude monitored at −40 mV (current of interest, COI). Results are calculated from the last recorded current traces. Changes in Kv11.1 (hERG) ion channel activity between control value, defined as 100% Kv11.1 (hERG) ion channel activity, application of test compound and application of quinidine is reported as percent change of control value of COI. An aliquot of test compound is collected for concentration verification during the recording. The sample is immediately measured by HPLC and the final compound concentration within the assay is calculated according to a calibration curve.

ATR/ATRIP = molecular target: T2, ATR/ATRIP (Homo sapiens, UniProt Q13535); assay: ATR/ATRIP kinase assay (TR-FRET, p53 phosphorylation); format: biochemical; conditions: Table 1, class symbols; read-out: ATR-ATRIP IC50
T2 construct: human ATR, full length, GenBank ID: NM_001184.3; p53: Sf21 insect cells
T2 sequence (Q13535 whole entry): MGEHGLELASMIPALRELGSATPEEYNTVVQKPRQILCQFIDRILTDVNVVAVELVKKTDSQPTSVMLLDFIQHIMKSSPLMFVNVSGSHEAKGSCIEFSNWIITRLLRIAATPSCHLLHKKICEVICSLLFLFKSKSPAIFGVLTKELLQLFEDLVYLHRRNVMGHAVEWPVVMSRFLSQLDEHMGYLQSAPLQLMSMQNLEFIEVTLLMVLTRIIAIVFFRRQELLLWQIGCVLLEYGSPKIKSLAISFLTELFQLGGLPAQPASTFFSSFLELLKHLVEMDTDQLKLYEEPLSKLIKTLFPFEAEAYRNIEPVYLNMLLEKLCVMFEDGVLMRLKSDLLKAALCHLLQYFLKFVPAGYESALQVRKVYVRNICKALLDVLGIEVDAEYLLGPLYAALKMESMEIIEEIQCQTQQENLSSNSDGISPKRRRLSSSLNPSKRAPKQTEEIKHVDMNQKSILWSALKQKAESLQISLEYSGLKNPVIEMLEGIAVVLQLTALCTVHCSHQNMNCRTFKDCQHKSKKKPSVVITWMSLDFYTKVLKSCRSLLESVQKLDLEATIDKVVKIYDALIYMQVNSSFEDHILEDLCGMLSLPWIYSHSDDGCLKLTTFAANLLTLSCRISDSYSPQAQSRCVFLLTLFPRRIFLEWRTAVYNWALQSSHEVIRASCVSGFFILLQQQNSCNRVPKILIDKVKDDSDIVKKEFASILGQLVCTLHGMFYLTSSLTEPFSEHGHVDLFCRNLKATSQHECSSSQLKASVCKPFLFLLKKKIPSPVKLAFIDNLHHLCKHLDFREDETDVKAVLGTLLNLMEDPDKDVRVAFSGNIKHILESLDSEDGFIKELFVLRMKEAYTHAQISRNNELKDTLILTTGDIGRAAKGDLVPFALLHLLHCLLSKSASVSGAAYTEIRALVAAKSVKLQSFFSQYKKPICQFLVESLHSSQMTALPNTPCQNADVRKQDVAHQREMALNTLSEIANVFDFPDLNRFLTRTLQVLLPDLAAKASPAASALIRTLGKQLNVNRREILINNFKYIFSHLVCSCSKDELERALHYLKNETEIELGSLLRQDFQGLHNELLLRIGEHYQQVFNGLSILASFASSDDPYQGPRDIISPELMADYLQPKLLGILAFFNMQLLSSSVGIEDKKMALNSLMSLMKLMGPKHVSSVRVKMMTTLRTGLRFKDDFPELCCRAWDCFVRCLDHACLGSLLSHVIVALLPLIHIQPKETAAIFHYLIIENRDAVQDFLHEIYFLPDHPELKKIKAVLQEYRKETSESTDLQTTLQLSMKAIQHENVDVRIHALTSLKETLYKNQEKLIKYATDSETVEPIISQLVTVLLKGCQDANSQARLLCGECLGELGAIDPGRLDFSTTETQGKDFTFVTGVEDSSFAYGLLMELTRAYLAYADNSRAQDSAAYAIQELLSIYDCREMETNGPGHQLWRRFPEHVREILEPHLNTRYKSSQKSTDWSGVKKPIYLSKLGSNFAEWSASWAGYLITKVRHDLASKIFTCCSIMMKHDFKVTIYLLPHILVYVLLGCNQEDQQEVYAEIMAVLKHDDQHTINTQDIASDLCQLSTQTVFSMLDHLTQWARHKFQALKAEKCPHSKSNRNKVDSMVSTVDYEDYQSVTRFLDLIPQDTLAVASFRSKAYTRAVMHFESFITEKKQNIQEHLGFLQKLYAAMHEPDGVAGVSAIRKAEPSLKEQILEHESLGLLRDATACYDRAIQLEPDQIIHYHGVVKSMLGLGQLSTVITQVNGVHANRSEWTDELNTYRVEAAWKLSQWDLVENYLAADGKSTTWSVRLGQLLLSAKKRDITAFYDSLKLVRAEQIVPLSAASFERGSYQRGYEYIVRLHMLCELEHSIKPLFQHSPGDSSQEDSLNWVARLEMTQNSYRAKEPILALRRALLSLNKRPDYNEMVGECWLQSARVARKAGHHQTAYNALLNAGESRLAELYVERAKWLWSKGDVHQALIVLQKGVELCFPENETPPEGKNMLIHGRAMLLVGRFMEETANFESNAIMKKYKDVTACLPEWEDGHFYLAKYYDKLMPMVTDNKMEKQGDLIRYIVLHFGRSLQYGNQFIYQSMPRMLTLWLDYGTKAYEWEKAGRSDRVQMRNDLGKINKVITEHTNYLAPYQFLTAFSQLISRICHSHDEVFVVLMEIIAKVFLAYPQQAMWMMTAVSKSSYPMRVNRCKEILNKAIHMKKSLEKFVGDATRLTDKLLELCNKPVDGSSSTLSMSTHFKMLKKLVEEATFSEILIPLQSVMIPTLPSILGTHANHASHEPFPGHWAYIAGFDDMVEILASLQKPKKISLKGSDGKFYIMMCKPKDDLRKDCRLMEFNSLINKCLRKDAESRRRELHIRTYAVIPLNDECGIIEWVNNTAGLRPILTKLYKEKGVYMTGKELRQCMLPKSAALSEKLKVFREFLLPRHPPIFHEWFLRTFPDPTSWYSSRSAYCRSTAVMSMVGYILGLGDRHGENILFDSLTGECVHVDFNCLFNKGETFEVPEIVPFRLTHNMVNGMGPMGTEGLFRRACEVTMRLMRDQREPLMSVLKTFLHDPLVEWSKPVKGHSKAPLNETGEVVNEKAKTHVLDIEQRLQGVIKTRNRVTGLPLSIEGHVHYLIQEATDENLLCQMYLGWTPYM
T2 sequence (Q8WXE1 whole entry partner): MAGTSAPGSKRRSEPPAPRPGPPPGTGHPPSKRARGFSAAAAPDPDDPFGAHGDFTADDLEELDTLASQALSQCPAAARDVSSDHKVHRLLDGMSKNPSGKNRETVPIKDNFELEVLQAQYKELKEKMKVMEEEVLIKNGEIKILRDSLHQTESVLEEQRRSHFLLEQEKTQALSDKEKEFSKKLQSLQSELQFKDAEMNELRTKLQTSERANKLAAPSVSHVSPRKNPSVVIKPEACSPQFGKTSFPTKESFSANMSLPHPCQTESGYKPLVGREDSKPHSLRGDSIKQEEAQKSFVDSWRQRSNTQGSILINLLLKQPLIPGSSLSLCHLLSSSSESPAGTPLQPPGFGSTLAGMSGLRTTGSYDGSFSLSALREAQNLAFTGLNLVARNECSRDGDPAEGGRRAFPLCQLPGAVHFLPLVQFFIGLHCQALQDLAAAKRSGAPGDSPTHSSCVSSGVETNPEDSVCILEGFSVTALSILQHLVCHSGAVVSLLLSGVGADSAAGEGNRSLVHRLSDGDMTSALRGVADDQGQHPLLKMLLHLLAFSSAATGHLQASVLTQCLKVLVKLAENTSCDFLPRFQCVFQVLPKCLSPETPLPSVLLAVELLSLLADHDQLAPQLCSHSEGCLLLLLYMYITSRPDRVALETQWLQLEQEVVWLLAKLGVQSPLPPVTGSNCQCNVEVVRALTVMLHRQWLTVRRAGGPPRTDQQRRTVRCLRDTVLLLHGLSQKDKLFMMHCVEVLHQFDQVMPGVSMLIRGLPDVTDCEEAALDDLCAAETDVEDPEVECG

[3] = HT-29, Table 1, class symbols, hydroxyurea

Compound | IC50 [1, 3] | IC50 ([1]; HT-29, Table 3, hydroxyurea) | hERG % effect @ conc ([2]; @ 10 μM) | Ki [2] | IC50 (ATR/ATRIP) | hERG % effect @ conc ([2]; @ 30 μM)
C[C@@H]1COC[C@H]2COc3c(nc(-c4ccnc5[nH]ccc45)nc3C(C)(C)S(C)(=O)=O)N21 [A13, (6R,8aS)-1-(1-Methanesulfonyl-1-methyl-ethyl)-5-methyl-3-(1H-pyrrolo[2,3-b]pyridin-4-yl)-5,6,8a,9-tetrahydro-8H-7,10-dioxa-2,4,4b-triaza-phenanthrene] | 10 to 100 nM | 20 nM | (−55% effect @ 10 μM) | 6.5 µM | < 1 nM | –
C[C@@H]1COC[C@H]2COc3c(nc(-c4c(N)cnc5[nH]ccc45)nc3C(C)(C)S(C)(=O)=O)N21 [A20, 4-[(4bR,8S)-1-(1-Methanesulfonyl-1-methyl-ethyl)-5-methyl-5,6,8a,9-tetrahydro-8H-7,10-dioxa-2,4,4b-triaza-phenanthren-3-yl]-1H-pyrrolo[2,3-b]pyridin-5-ylamine] | 10 to 100 nM | 36 nM | (−19% effect @ 10 μM) | > 10 µM | < 1 nM | –
CNc1cnc2[nH]ccc2c1-c1nc2c(c(C(C)(C)S(C)(=O)=O)n1)OC[C@@H]1COC[C@@H](C)N21 [A1, {4-[(S)-1-(1-Methanesulfonyl-1-methyl-ethyl)-5-(R)-methyl-5,6,8a,9-tetrahydro-8H-7,10-dioxa-2,4,4b-triaza-phenanthren-3-yl]-1H-pyrrolo[2,3-b]pyridin-5-yl}-methyl-amine] | < 10 nM | 6.2 nM | – | > 30 µM | < 1 nM | (−50% @ 30 μM)
